Test results taken from US12662451B2, “Chemical compounds and uses thereof” (GLAXOSMITHKLINE INTELLECTUAL PROPERTY (NO.4) LIMITED, priority 2023, dated 2026).
Structures can show the parent of a compound that is named as a salt.

Biological target: T1, recombinant full-length WRN protein (1-1432) (Homo sapiens, UniProt Q14191)
T1 construct: recombinant full-length WRN protein (1-1432)
Experiment: WRN unwinding activity, fluorogenic 384-well assay (Example A)
Format: biochemical
Conditions: WRN unwinding activity, 4 hr; Table 2; read-out: 4 hr UNW pIC50 (converted)
Method in brief: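 Read-out is end-point unwinding of a fluorophore/quencher duplex (ex 525, em 598 nm) after 60 min with 200 μM ATP and 12 nM DNA (2× stocks), EDTA stop. Compound first sat 4 h with 200 pM WRN (2× stock) in pH 8.0 Tris buffer; four-parameter fit gives pIC50.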

T1 sequence (Q14191 whole entry): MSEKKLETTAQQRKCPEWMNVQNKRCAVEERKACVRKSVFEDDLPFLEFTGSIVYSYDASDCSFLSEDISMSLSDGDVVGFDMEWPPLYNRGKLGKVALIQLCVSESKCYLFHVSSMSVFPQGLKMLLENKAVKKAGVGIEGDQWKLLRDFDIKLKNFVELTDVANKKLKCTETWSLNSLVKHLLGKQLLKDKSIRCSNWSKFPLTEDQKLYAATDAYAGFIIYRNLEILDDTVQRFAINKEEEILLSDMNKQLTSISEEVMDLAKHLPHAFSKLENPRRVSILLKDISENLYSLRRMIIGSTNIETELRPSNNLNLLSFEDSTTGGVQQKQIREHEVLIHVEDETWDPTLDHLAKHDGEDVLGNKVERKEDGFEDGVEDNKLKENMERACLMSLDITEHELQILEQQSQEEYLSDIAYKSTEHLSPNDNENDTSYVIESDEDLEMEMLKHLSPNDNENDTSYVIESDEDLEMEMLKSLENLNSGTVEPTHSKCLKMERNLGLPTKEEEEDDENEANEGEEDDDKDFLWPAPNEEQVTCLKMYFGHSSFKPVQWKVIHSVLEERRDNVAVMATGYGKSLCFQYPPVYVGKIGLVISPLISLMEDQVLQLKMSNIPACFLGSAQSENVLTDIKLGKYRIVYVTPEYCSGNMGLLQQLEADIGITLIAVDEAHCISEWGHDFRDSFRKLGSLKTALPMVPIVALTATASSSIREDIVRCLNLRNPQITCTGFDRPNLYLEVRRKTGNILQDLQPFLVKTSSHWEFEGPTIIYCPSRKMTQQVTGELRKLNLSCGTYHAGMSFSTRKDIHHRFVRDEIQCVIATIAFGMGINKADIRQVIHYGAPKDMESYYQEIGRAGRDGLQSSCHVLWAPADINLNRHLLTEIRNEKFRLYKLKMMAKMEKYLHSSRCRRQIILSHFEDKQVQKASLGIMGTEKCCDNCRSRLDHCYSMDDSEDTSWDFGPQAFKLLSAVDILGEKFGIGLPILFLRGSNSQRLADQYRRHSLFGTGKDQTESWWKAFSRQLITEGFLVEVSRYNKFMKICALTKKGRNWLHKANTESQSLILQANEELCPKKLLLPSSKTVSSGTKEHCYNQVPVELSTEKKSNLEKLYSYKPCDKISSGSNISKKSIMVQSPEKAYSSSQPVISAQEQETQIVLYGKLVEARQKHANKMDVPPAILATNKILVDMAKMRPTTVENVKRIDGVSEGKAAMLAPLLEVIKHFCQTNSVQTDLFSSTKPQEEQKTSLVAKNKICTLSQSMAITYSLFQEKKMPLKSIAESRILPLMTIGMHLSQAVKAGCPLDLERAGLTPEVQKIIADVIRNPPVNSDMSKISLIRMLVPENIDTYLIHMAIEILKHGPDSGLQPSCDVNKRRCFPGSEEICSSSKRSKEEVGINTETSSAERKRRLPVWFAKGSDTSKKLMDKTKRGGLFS

Row | SMILES | IC50 [nM]
1 | CO[C@@H]1C[C@H](c2ccc(N(C)S(=O)(=O)c3ccc4c(c3)nc(C)n4C)cc2)[C@@H](C(=O)O)[C@H](C(=O)Nc2ccc(C(F)(F)F)cc2F)C1 (single isomer, unassigned) [Example 146] | 100
2 | O=C(O)[C@@H]1[C@@H](c2ccc(-c3ncsc3CO)cc2)CCC[C@H]1C(=O)Nc1ccc(C(F)(F)F)cc1F [Example 52, (1R,2R,6S)-2-((2-fluoro-4-(trifluoromethyl)phenyl)carbamoyl)-6-(4-(5-(hydroxymethyl)thiazol-4-yl)phenyl)cyclohexane-1-carboxylic acid] | 794
3 | O=C(O)[C@@H]1[C@@H](c2ccc(-c3nncc4ccoc34)cc2)CCC[C@H]1C(=O)Nc1ccc(C(F)(F)F)cc1F [Example 45, (1R,2R,6S)-2-((2-fluoro-4-(trifluoromethyl)phenyl)carbamoyl)-6-(4-(furo[2,3-d]pyridazin-7-yl)phenyl)cyclohexane-1-carboxylic acid] | 126
4 | O=C(O)[C@@H]1[C@@H](c2ccc(-c3cnn(CC4CC4)c3)cc2)CCC[C@H]1C(=O)Nc1ccc(C(F)(F)F)cc1F [Example 23, (1R,2S,6R)-2-(4-(1-(cyclopropylmethyl)-1H-pyrazol-4-yl)phenyl)-6-((2-fluoro-4-(trifluoromethyl)phenyl)carbamoyl)cyclohexane-1-carboxylic acid] | 126
5 | Cc1nc2cc(S(=O)(=O)N(C)c3ccc([C@H]4CCC[C@@H](C(=O)NC56CC(C(F)F)(C5)C6)[C@@H]4C(=O)O)cc3)ccc2n1C [Example 186, (1R,2R,6S)-2-((3-(difluoromethyl)bicyclo[1.1.1]pentan-1-yl)carbamoyl)-6-(4-((N,1,2-trimethyl-1H-benzo[d]imidazole)-5-sulfonamido)phenyl)cyclohexane-1-carboxylic acid, formic acid salt] | 3160
6 | Cc1nc2cc(S(=O)(=O)N(C)c3ccc([C@@H]4C[C@@H](NCC(F)(F)F)C[C@H](C(=O)Nc5ccc(C(F)(F)F)cc5F)[C@H]4C(=O)O)cc3)ccc2n1C (stereo in doubt) [Example 335, rel-(1R,2R,4S,6S)-2-((2-fluoro-4-(trifluoromethyl)phenyl)carbamoyl)-4-((2,2,2-trifluoroethyl)amino)-6-(4-((N,1,2-trimethyl-1H-benzo[d]imidazole)-5-sulfonamido)phenyl)cyclohexane-1-carboxylic acid] | 2510
7 | CN(c1ccc([C@H]2CCC[C@@H](C(=O)Nc3ccc(C(F)(F)F)cc3F)[C@@H]2C(=O)O)cc1)S(=O)(=O)c1ccc2c(c1)ncn2C (single isomer, unassigned) [Example 87] | 316
8 | O=C(O)[C@@H]1[C@@H](c2ccc(-c3ncnc4sccc34)cc2)CCC[C@H]1C(=O)Nc1ccc(C(F)(F)F)cc1F [Example 34, (1R,2R,6S)-2-((2-fluoro-4-(trifluoromethyl)phenyl)carbamoyl)-6-(4-(thieno[2,3-d]pyrimidin-4-yl)phenyl)cyclohexane-1-carboxylic acid] | 2510
9 | Cc1nc2cc(S(=O)(=O)N(C)c3ccc([C@H]4CCC[C@@H](C(=O)N[C@]56CC[C@H](CC5)C6)[C@@H]4C(=O)O)cc3)ccc2n1C [Example 193, (1R,2R,6S)-2-(((1r,4R)-bicyclo[2.2.1]heptan-1-yl)carbamoyl)-6-(4-((N,1,2-trimethyl-1H-benzo[d]imidazole)-5-sulfonamido)phenyl)cyclohexane-1-carboxylic acid] | 20000
10 | Cc1nc2cc(S(=O)(=O)N(C)c3ccc([C@@H]4C[C@H](Oc5ccccc5)C[C@H](C(=O)Nc5ccc(C(F)(F)F)cc5F)[C@H]4C(=O)O)cc3)ccc2n1C (single isomer, unassigned) [Example 153] | 3160
11 | Cc1nc2cc(S(=O)(=O)N(C)c3ccc([C@H]4C[C@@H]5COC[C@@H]5[C@@H](C(=O)Nc5ccc(C(F)(F)F)cc5F)[C@@H]4C(=O)O)cc3)ccc2n1C (stereo in doubt) [Example 393, rel-(3aR,4S,5S,6R,7aR)-4-((2-fluoro-4-(trifluoromethyl)phenyl)carbamoyl)-6-(4-((N,1,2-trimethyl-1H-benzo[d]imidazole)-5-sulfonamido)phenyl)octahydroisobenzofuran-5-carboxylic acid] | 251
12 | O=C(Cc1cccc(-c2ccc([C@H]3CCC[C@@H](C(=O)Nc4ccc(C(F)(F)F)cc4F)[C@@H]3C(=O)O)cc2)c1)NC1CC1 [Example 20, (1R,2S,6R)-2-(3′-(2-(cyclopropylamino)-2-oxoethyl)-[1,1′-biphenyl]-4-yl)-6-((2-fluoro-4-(trifluoromethyl)phenyl)carbamoyl)cyclohexane-1-carboxylic acid] | 6310
13 | Cc1nc2cc(S(=O)(=O)N(C)c3ccc([C@@H]4C[C@@H](N5CCC(F)(F)CC5)C[C@H](C(=O)Nc5ccc(C(F)(F)F)cc5F)[C@H]4C(=O)O)cc3)ccc2n1C (relative stereo) [Example 341, rel-(1R,2R,4S,6S)-4-(4,4-difluoropiperidin-1-yl)-2-((2-fluoro-4-(trifluoromethyl)phenyl)carbamoyl)-6-(4-((N,1,2-trimethyl-1H-benzo[d]imidazole)-5-sulfonamido)phenyl)cyclohexane-1-carboxylic acid] | 7940
14 | COc1cscc1-c1ccc([C@H]2CCC[C@@H](C(=O)Nc3ccc(C(F)(F)F)cc3F)[C@@H]2C(=O)O)cc1 [Example 42, (1R,2R,6S)-2-((2-fluoro-4-(trifluoromethyl)phenyl)carbamoyl)-6-(4-(4-methoxythiophen-3-yl)phenyl) cyclohexane-1-carboxylic acid] | 1000
15 | O=C(O)[C@@H]1[C@@H](c2ccc(C3CC3)cc2)CCC[C@H]1C(=O)Nc1ccc(C(F)(F)F)cc1F [Example 69, (1R,2S,6R)-2-(4-cyclopropylphenyl)-6-((2-fluoro-4-(trifluoromethyl)phenyl)carbamoyl)cyclohexane-1-carboxylic acid] | 6310
16 | Cc1nc2cc(S(=O)(=O)N(C)c3ccc([C@H]4CCC[C@@H](C(=O)NC5CCC6(CCCC6)CC5)[C@@H]4C(=O)O)cc3)ccc2n1C [Example 184, (1R,2R,6S)-2-(spiro[4.5]decan-8-ylcarbamoyl)-6-(4-((N,1,2-trimethyl-1H-benzo[d]imidazole)-5-sulfonamido)phenyl)cyclohexane-1-carboxylic acid, formic acid salt] | 631
17 | O=C(O)[C@@H]1[C@@H](c2ccc(-c3ccc4nnnn4n3)cc2)CCC[C@H]1C(=O)Nc1ccc(C(F)(F)F)cc1F [Example 29, (1R,2R,6S)-2-((2-fluoro-4-(trifluoromethyl)phenyl)carbamoyl)-6-(4-(tetrazolo[1,5-b]pyridazin-6-yl)phenyl) cyclohexane-1-carboxylic acid] | 3980
18 | O=C(O)[C@@H]1[C@@H](c2ccc(-c3ccccc3COC3CCOCC3)cc2)CCC[C@H]1C(=O)Nc1ccc(C(F)(F)F)cc1F [Example 19, (1R,2R,6S)-2-((2-fluoro-4-(trifluoromethyl)phenyl)carbamoyl)-6-(2′-(((tetrahydro-2H-pyran-4-yl)oxy)methyl)-[1,1′-biphenyl]-4-yl) cyclohexane-1-carboxylic acid] | 316
19 | Cc1cscc1-c1ccc([C@H]2CCC[C@@H](C(=O)Nc3ccc(C(F)(F)F)cc3F)[C@@H]2C(=O)O)cc1 [Example 43, (1R,2R,6S)-2-((2-fluoro-4-(trifluoromethyl)phenyl)carbamoyl)-6-(4-(4-methylthiophen-3-yl)phenyl)cyclohexane-1-carboxylic acid] | 10
20 | Cc1nc2cc(S(=O)(=O)N(C)c3ccc([C@H]4CNC[C@@H](C(=O)Nc5ccc(C(F)(F)F)cc5F)[C@@H]4C(=O)O)cc3)ccc2n1C (relative stereo) [Example 308, rel-(3R,4S,5R)-3-((2-fluoro-4-(trifluoromethyl)phenyl)carbamoyl)-5-(4-((N,1,2-trimethyl-1H-benzo[d]imidazole)-5-sulfonamido)phenyl)piperidine-4-carboxylic acid] | 1.58
21 | Cc1sccc1-c1ccc([C@H]2CCC[C@@H](C(=O)Nc3ccc(C(F)(F)F)cc3F)[C@@H]2C(=O)O)cc1 [Example 46, (1R,2R,6S)-2-((2-fluoro-4-(trifluoromethyl)phenyl)carbamoyl)-6-(4-(2-methylthiophen-3-yl)phenyl)cyclohexane-1-carboxylic acid] | 31.6
22 | Cc1nc2cc(S(=O)(=O)N(C)c3ccc([C@H]4CCC[C@@H](C(=O)N[C@H]5CCCC[C@@H]5C)[C@@H]4C(=O)O)cc3)ccc2n1C [Example 197, (1R,2R,6S)-2-(((1S,2S)-2-methylcyclohexyl)carbamoyl)-6-(4-((N,1,2-trimethyl-1H-benzo[d]imidazole)-5-sulfonamido)phenyl)cyclohexane-1-carboxylic acid] | 2510
23 | Cc1nc2cc(S(=O)(=O)N(C)c3ccc([C@@H]4C[C@H](N)C[C@H](C(=O)Nc5ccc(C(F)(F)F)cc5F)[C@H]4C(=O)O)cc3)ccc2n1C (stereo in doubt) [Example 302, rel-(1R,2R,4R,6S)-4-amino-2-((2-fluoro-4-(trifluoromethyl)phenyl)carbamoyl)-6-(4-((N,1,2-trimethyl-1H-benzo[d]imidazole)-5-sulfonamido)phenyl)cyclohexane-1-carboxylic acid] | 126
24 | Cc1nc2cc(S(=O)(=O)N(C)c3ccc([C@H]4CCC[C@@H](C(=O)N[C@H]5CC[C@@H](C6CCC6)CC5)[C@@H]4C(=O)O)cc3)ccc2n1C [Example 189, (1R,2R,6S)-2-(((1s,4S)-4-cyclobutylcyclohexyl)carbamoyl)-6-(4-((N,1,2-trimethyl-1H-benzo[d]imidazole)-5-sulfonamido)phenyl)cyclohexane-1-carboxylic acid] | 398
25 | O=C(O)[C@@H]1[C@@H](c2ccc(-c3ccn[nH]3)cc2)CCC[C@H]1C(=O)Nc1ccc(C(F)(F)F)cc1F [Example 5, (1R,2S,6R)-2-(4-(1H-pyrazol-5-yl)phenyl)-6-((2-fluoro-4-(trifluoromethyl)phenyl)carbamoyl)cyclohexane-1-carboxylic acid] | 20
